Legend:
[1] = target: T1, NURR-1/RXRα (Homo sapiens, UniProt P19793); assay: Transactivation test, NURR-1-Gal4/RXRα, luciferase reporter in Cos-7 cells; format: cell-based; settings: for Emax: COS-7, induction level relative to reference XCT0135908 at 2×10^−5 M (=100%), read-out: hNurr1_RXRaFL Emax (%); for EC50: Cos-7 cells, NURR-1-Gal4/RXRα, luciferase reporter, read-out: hNurr1_RXRaFL EC50
T1 construct: expressed in transfected cells; host or cells: Cos-7 cells

[2] = Brain penetration in rats after intravenous administration; format: in vivo; settings: rat; for Kp at 4 h: male, Wistar, intravenous, 4 mg/kg, ratio of Cmax brain to Cmax plasma after the 4 hours of infusion, rats, read-out: Kp (partition coefficient between the brain and the plasma); for Cmax at 4 h: male Wistar rats, 4 mg/kg iv infusion into the jugular vein for 4 hours, plasma at end of infusion
Experimental: (§1) Three series of in vivo tests were carried out with compounds representative of the invention, for the purpose of determining their pharmacokinetic plasma profile and their brain penetration.
2. Study of the Brain Penetration in Rats After Intravenous Administration
Male Wistar rats (250-300 g) originating from the establishment Janvier, Le Genest-St-Isle, France were used for this study (4 rats per study). The animals were fed with standard feed for rodents (Purina Mills, St. Louis, Mo.), placed in cages and subjected to light/darkness cycles of 12 h/12 h, the room temperature being maintained at 22±2° C. and the humidity level at 55±10%. The rats were not deprived food before the administration. Water was provided at will throughout the study.
The test compound was administered intravenously at 4 mg/kg by infusion into the jugular vein for 4 hours. For the intravenous administration, the animals were infused with 12 mL/kg of a solution of the test compound, prepared in 2% Cremophor EL/0.9% NaCl.
The animals were sacrificed under anesthesia after 4 hours of infusion. The blood and the brain were collected from each sacrificed animal 0.5 mL of blood collected in 1.5 mL tubes containing 20 μL of evaporated anticoagulant (solution of sodium heparinate at 1000 IU/mL) was centrifuged at 4500 g for 3 min in order to obtain approximately 200 μL of plasma. The plasma was divided up into 2 aliquots of 70 μL minimum, which were stored at −20° C. until they were treated by protein precipitation and then analysis by liquid chromatography coupled to tandem mass spectrometry (LC-MS/MS) in order to quantify the compound tested.
The brains were immersed in liquid nitrogen directly after they were removed, then stored at −20° C. for analysis. The brains were then ground in the presence of an aqueous/organic solvent mixture in order to obtain a homogenate. These homogenates were then centrifuged and the compound tested was extracted from the supernatant obtained, by liquid-liquid extraction, and then quantified by LC-MS/MS.
The brain penetration in the rats is represented by the Kp, which is the partition coefficient between the brain and the plasma. It is calculated by the ratio of the concentration measured in the brain (Cmax brain) and the plasma (Cmax plasma) after the 4 hours of infusion.

[3] = target: T2, NURR-1/RXRγ (Homo sapiens, UniProt P48443); assay: Transactivation test, NURR-1-Gal4/RXRγ, luciferase reporter in Cos-7 cells; format: cell-based; settings: for Emax: COS-7, induction level relative to reference XCT0135908 at 2×10^−5 M (=100%), read-out: hNurr1_RXRgFL Emax (%); for EC50: Cos-7 cells, NURR-1-Gal4/RXRγ, luciferase reporter, read-out: hNurr1_RXRgFL EC50
T2 construct: expressed in transfected cells; host or cells: Cos-7 cells

[4] = tested on: dopaminergic neurons of primary culture of rat embryo mesencephalon treated with MPP+; assay: Neuroprotection in primary culture of rat embryo mesencephalon treated with MPP+ (count of tyrosine hydroxylase expressing cells); format: cell-based; settings: recombinant human BDNF 10 ng/mL = 100%, 2 days with MPP+
In short: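 Rat embryo (E15) mesencephalon cultures, 5 days, then MPP+ with or without compound on day 6 for 2 days. Tyrosine hydroxylase-immunolabelled cells counted by image analysis; activity expressed as percent of recombinant human BDNF (10 ng/mL) reference, set at 100%.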

[5] = Plasma pharmacokinetics in mice after oral administration; format: in vivo; settings: mouse, male C57/Bl6 mice, oral 10 mg/kg; for AUC: sampling 15 min to 7 h, log-linear trapezoidal method, read-out: AUCplasma; for Cmax: suspension in 1% methylcellulose/0.1% Poloxamer 188
Experimental: as §1
1. Study of the Plasma Phannacokinectis in Mice After Oral Administration
Male C57/B16 mice (25-30 g) originating from the establishment Janvier, Le Genest-St-Isle, France were used for this study (9 mice per dose). The animals were fed with standard feed for rodents (Purina Mills, St. Louis, Mo.), placed in cages and subjected to light/darkness cycles of 12 h/12 h, the temperature of the room being maintained at 22±2° C. and the humidity level at 55±10%.
The mice were not deprived food before the administration. Water was provided at will throughout the study. The test compound was admistered orally at 10 mg/kg. For the oral administration at 10 mg/kg, the animals were green, by gavage, 10 mL/kg of a suspension of the test compound, prepared in 1% methylcellulose, 400 cps/0.1% Poloxamer 188/water.
The animals were sacrificed under anesthesia at times 15 min, 30 min, 1 h, 3 h and 7 h after gavage. The blood was collected at each time, and from each animal sacrificed 0.5 mL of blood collected in 1.5 mL tubes containing 20 μL of evaporated anticoagulant (solution of sodium heparinate at 1000 IU/mL) was centrifuged at 4500 g for 3 min in order to obtain approximately 200 μL of plasma. The plasma was divided up into 2 aliquots of 70 μL minimum, which were stoted at −20° C. until they were treated by protein precipitation and then analysis by liquid chromatography coupled to tandem mass spectrometry (LC-MS/MS) in order to quantify the compound tested.
The pharmacokinetic plasma parameters in the mice after oral administration were determined using a non-compartmental approach with the Phoenix WinNonLin software. The area under the curve (AUC0-1) was determined bv the log-linear trapezoidal method. The tesults are brought together in the following table.

T2 sequence (P48443 whole entry, the tested form may be a part): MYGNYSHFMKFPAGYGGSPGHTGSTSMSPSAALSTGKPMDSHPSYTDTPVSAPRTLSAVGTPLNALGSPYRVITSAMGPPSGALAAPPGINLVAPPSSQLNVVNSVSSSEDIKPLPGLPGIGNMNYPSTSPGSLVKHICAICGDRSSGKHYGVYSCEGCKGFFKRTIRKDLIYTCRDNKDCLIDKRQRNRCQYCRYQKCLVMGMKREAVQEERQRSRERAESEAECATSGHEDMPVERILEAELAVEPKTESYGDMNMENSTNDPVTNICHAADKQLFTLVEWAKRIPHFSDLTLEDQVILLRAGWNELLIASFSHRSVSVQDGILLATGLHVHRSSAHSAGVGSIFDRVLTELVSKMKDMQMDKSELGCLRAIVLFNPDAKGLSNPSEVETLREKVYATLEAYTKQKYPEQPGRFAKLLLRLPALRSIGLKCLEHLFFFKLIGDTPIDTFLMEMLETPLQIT
T2 sequence (P43354 whole entry partner, the tested form may be a part): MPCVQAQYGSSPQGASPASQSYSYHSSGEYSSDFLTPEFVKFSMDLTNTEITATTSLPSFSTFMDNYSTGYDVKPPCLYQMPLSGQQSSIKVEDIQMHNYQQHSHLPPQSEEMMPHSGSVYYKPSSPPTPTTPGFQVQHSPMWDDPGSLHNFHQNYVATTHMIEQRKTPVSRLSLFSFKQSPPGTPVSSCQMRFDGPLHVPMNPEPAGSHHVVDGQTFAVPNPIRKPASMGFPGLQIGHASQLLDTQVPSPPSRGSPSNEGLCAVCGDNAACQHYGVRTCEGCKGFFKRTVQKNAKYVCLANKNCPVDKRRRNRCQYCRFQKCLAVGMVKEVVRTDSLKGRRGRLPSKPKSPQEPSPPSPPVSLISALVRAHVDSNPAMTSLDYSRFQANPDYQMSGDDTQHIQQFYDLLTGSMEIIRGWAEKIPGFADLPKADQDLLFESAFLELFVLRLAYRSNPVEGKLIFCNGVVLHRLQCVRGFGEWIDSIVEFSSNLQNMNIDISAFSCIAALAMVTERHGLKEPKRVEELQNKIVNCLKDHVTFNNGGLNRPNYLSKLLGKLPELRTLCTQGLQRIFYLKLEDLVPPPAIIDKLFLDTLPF
T2 sequence (P04386 1-147 partner limits assumed): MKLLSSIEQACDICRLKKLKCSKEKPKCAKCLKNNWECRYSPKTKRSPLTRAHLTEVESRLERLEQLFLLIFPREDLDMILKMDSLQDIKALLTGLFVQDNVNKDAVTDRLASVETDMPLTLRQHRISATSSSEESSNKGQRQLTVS
T1 sequence (P19793 whole entry, the tested form may be a part): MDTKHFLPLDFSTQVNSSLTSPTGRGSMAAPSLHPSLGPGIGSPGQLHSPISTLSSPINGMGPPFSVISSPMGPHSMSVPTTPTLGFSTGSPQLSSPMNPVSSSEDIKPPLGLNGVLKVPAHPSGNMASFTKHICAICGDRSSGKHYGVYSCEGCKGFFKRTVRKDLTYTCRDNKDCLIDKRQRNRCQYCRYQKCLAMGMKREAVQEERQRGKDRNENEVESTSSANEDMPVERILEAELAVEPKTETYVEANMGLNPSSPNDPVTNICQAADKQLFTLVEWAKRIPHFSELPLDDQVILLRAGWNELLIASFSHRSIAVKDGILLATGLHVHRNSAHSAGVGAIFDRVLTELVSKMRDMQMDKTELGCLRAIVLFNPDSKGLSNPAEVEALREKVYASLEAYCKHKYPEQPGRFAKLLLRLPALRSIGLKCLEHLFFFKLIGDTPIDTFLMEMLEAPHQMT
T1 sequence (P43354 whole entry partner, the tested form may be a part): as the sequence (P43354 whole entry partner, the tested form may be a part) above
T1 sequence (P04386 1-147 partner limits assumed): as the sequence (P04386 1-147 partner limits assumed) above

Structure (SMILES)	Emax [1] [%]	EC50 [1] [nM]	Kp at 4 h [2]	Cmax at 4 h [2] [ng/mL]	Emax [3] [%]	EC50 [3] [nM]	percentage of activity relative to the BDNF reference ([4]; compound 1 μM) [%]	percentage of activity relative to the BDNF reference ([4]; compound 10 μM) [%]	AUC [5] [ng·h/mL]	Cmax [5] [ng/mL]
O=C(O)C1CN(c2cccc(N3CC4(CCC4)Oc4cc(C(F)(F)F)ccc43)c2)C1 [Example 113, 1-[3-[7-(trifluoromethyl)spiro[3H-1,4-benzoxazine-2,1′-cyclobutane]-4-yl]phenyl]azetidine-3-carboxylic acid]	140	3	1.2	3430	139	4	90	80	3340	2290
CC(C)(C)c1cc(-c2cccc(N3CC(C(=O)O)C3)c2)cc(C(C)(C)C)c1 [Example 11, 1[3-(3,5-di-tert-butylphenyl)phenyl]azetidine-3-carboxylic acid]	105	11	1.22	4140	100	14	78	88	52000	10300
Cc1cc(N2CC(C(=O)O)C2)cc(-n2ccc3cc(C(F)(F)F)ccc32)c1 [Example 50, 1-[3-methyl-5[5-(trifluoromethyl)indol-1-yl]phenyl]azetidine-3-carboxylic acid]	95	2	0.19	4920	102	5	74	91	24300	11400
Cc1nnc(COc2ccc(C(F)(F)F)cc2-c2cccc(N3CC(C(=O)O)C3)c2)o1 [Example 110, 1-[3-[2-[(5-methyl-1,3,4-oxadiazol-2-yl)methoxy]-5-(trifluoromethyl)phenyl]phenyl]azetidine-3-carboxylic acid]	49	1510	0.2	10100	32	1720	74	102	40100	8710
CCCC1Oc2cc(C(F)(F)F)ccc2N(c2cccc(N3CC(C(=O)O)C3)c2)C1=O (stereo not drawn) [Example 122, 1-[3-[3-oxo-2-propyl-7-(trofluoromethyl)-1,4-benzoxazin-3-yl]phenyl]azetidine-3-caroxylic acid]	93	13	1.14	3860	95	14	92	39	34100	7840
Cc1cc(-c2ccc(Cl)c(C(F)(F)F)c2)cc(N2CC(C(=O)O)C2)c1 [Example 22, 1-[3-[4-chloro-3-(trifluoromethyl)phenyl]-5-methylphenyl]azetidine-3-carboxylic acid]	91	9	0.14	9900	87	13	79	103	72200	18600

Source: US20170066717A1, “NEW PHENYLAZETIDINECARBOXYLATE OR -CARBOXAMIDE COMPOUNDS” (INVENTIVA, priority 2014, published 2017)
